“And” between values parts separate entries of the source, which are not always exact repeats. Equal entries are not always repeated. ± gives the expanded uncertainty stated by the source.
Assay: xn = mol fraction of the nth substance listed
Conditions: Fluid (supercritical or subcritical phases), Parallel plate method

CC [ethane] + O=C=O
Conditions	thermal conductivity
291.06 K, Amount density=2940 mol/m3, x2 = 0.5	0.0276 ± 0.0015 W/m/K
291.06 K, Amount density=6960 mol/m3, x2 = 0.5	0.099 ± 0.0025 W/m/K
291.07 K, Amount density=5650 mol/m3, x2 = 0.5	0.0554 ± 0.0021 W/m/K
291.07 K, Amount density=7530 mol/m3, x2 = 0.5	0.114 ± 0.005 W/m/K
291.08 K, Amount density=435 mol/m3, x2 = 0.5	0.0191 ± 0.0013 W/m/K
291.11 K, Amount density=6960 mol/m3, x2 = 0.5	0.104 ± 0.0026 W/m/K
291.17 K, Amount density=6960 mol/m3, x2 = 0.5	0.11 ± 0.0027 W/m/K
291.18 K, Amount density=6960 mol/m3, x2 = 0.5	0.108 ± 0.0027 W/m/K
291.2 K, Amount density=7530 mol/m3, x2 = 0.5	0.144 ± 0.0049 W/m/K
291.24 K, Amount density=7730 mol/m3, x2 = 0.5	0.151 ± 0.011 W/m/K
291.26 K, Amount density=7530 mol/m3, x2 = 0.5	0.159 ± 0.0056 W/m/K
291.29 K, Amount density=7530 mol/m3, x2 = 0.5	0.158 ± 0.0057 W/m/K
291.32 K, Amount density=7530 mol/m3, x2 = 0.5	0.21 ± 0.028 W/m/K
291.33 K, Amount density=7530 mol/m3, x2 = 0.5	0.206 ± 0.0085 W/m/K
291.34 K, Amount density=435 mol/m3, x2 = 0.5	0.0192 ± 0.0013 W/m/K
291.34 K, Amount density=2940 mol/m3, x2 = 0.5	0.0274 ± 0.0014 W/m/K
291.34 K, Amount density=6960 mol/m3, x2 = 0.5	0.11 ± 0.0027 W/m/K
291.34 K, Amount density=7730 mol/m3, x2 = 0.5	0.203 ± 0.0049 W/m/K
291.35 K, Amount density=5650 mol/m3, x2 = 0.5	0.0542 ± 0.0018 W/m/K
291.35 K, Amount density=6960 mol/m3, x2 = 0.5	0.111 ± 0.0027 W/m/K
291.35 K, Amount density=7530 mol/m3, x2 = 0.5	0.172 ± 0.0054 W/m/K
291.5 K, Amount density=435 mol/m3, x2 = 0.5	0.0192 ± 0.0013 W/m/K
291.55 K, Amount density=2940 mol/m3, x2 = 0.5	0.0274 ± 0.0014 W/m/K
291.55 K, Amount density=7730 mol/m3, x2 = 0.5	0.128 ± 0.0039 W/m/K
291.57 K, Amount density=5650 mol/m3, x2 = 0.5	0.0553 ± 0.0019 W/m/K
291.57 K, Amount density=7530 mol/m3, x2 = 0.5	0.139 ± 0.0034 W/m/K
292.05 K, Amount density=6960 mol/m3, x2 = 0.5	0.099 ± 0.0025 W/m/K and 0.0913 ± 0.0024 W/m/K
292.05 K, Amount density=7530 mol/m3, x2 = 0.5	0.106 ± 0.0027 W/m/K
292.05 K, Amount density=7730 mol/m3, x2 = 0.5	0.102 ± 0.0026 W/m/K
292.08 K, Amount density=435 mol/m3, x2 = 0.5	0.0192 ± 0.0013 W/m/K
292.09 K, Amount density=5650 mol/m3, x2 = 0.5	0.0546 ± 0.0018 W/m/K
292.11 K, Amount density=2940 mol/m3, x2 = 0.5	0.0276 ± 0.0014 W/m/K
292.64 K, Amount density=6630 mol/m3, x2 = 0.74	0.0593 ± 0.0019 W/m/K
293.08 K, Amount density=6710 mol/m3, x2 = 0.26	0.0687 ± 0.002 W/m/K
293.08 K, Amount density=7530 mol/m3, x2 = 0.5	0.0833 ± 0.0023 W/m/K
293.09 K, Amount density=6960 mol/m3, x2 = 0.5	0.0861 ± 0.0023 W/m/K
293.11 K, Amount density=7730 mol/m3, x2 = 0.5	0.0798 ± 0.0022 W/m/K
293.13 K, Amount density=2940 mol/m3, x2 = 0.5	0.0277 ± 0.0014 W/m/K
293.14 K, Amount density=5650 mol/m3, x2 = 0.5	0.052 ± 0.0018 W/m/K
293.15 K, Amount density=435 mol/m3, x2 = 0.5	0.0193 ± 0.0013 W/m/K
293.15 K, Amount density=877 mol/m3, x2 = 0.26	0.0213 ± 0.0013 W/m/K
293.15 K, Amount density=6630 mol/m3, x2 = 0.74	0.0578 ± 0.0019 W/m/K
293.15 K, Amount density=9120 mol/m3, x2 = 0.74	0.213 ± 0.014 W/m/K
293.17 K, Amount density=9120 mol/m3, x2 = 0.74	0.16 ± 0.0036 W/m/K
293.24 K, Amount density=9120 mol/m3, x2 = 0.74	0.156 ± 0.009 W/m/K
293.34 K, Amount density=9120 mol/m3, x2 = 0.74	0.135 ± 0.004 W/m/K
293.53 K, Amount density=9120 mol/m3, x2 = 0.74	0.116 ± 0.0029 W/m/K
293.64 K, Amount density=3090 mol/m3, x2 = 0.26	0.0314 ± 0.0015 W/m/K
293.95 K, Amount density=9120 mol/m3, x2 = 0.74	0.101 ± 0.0027 W/m/K
294.32 K, Amount density=9120 mol/m3, x2 = 0.74	0.0842 ± 0.0023 W/m/K
294.72 K, Amount density=9120 mol/m3, x2 = 0.74	0.0824 ± 0.0022 W/m/K
294.96 K, Amount density=6710 mol/m3, x2 = 0.26	0.075 ± 0.0021 W/m/K
295.61 K, Amount density=7450 mol/m3, x2 = 0.25	0.0795 ± 0.0022 W/m/K
295.7 K, Amount density=6960 mol/m3, x2 = 0.5	0.0639 ± 0.002 W/m/K
295.73 K, Amount density=6710 mol/m3, x2 = 0.26	0.0845 ± 0.0023 W/m/K
295.76 K, Amount density=7450 mol/m3, x2 = 0.25	0.0843 ± 0.0024 W/m/K
295.87 K, Amount density=7450 mol/m3, x2 = 0.25	0.0833 ± 0.0024 W/m/K
295.98 K, Amount density=7450 mol/m3, x2 = 0.25	0.0881 ± 0.0026 W/m/K
296.02 K, Amount density=7530 mol/m3, x2 = 0.5	0.0642 ± 0.002 W/m/K
296.02 K, Amount density=7730 mol/m3, x2 = 0.5	0.0595 ± 0.0019 W/m/K
296.03 K, Amount density=9120 mol/m3, x2 = 0.74	0.0663 ± 0.002 W/m/K
296.04 K, Amount density=5650 mol/m3, x2 = 0.5	0.047 ± 0.0017 W/m/K
296.05 K, Amount density=6630 mol/m3, x2 = 0.74	0.0507 ± 0.0018 W/m/K
296.05 K, Amount density=6710 mol/m3, x2 = 0.26	0.099 ± 0.0043 W/m/K and 0.101 ± 0.0046 W/m/K
296.06 K, Amount density=435 mol/m3, x2 = 0.5	0.0196 ± 0.0013 W/m/K
296.06 K, Amount density=6630 mol/m3, x2 = 0.74	0.0506 ± 0.0018 W/m/K
296.06 K, Amount density=8450 mol/m3, x2 = 0.25	0.112 ± 0.0058 W/m/K
296.07 K, Amount density=2940 mol/m3, x2 = 0.5	0.0278 ± 0.0014 W/m/K
296.07 K, Amount density=6960 mol/m3, x2 = 0.5	0.062 ± 0.0019 W/m/K
296.07 K, Amount density=7450 mol/m3, x2 = 0.25	0.0888 ± 0.0024 W/m/K
296.1 K, Amount density=6710 mol/m3, x2 = 0.26	0.0958 ± 0.0031 W/m/K
296.11 K, Amount density=8450 mol/m3, x2 = 0.25	0.11 ± 0.0034 W/m/K
296.12 K, Amount density=446 mol/m3, x2 = 0.25	0.0209 ± 0.0013 W/m/K
296.14 K, Amount density=2940 mol/m3, x2 = 0.25	0.0304 ± 0.0016 W/m/K
296.14 K, Amount density=10780 mol/m3, x2 = 0.25	0.0692 ± 0.002 W/m/K
296.18 K, Amount density=5680 mol/m3, x2 = 0.25	0.075 ± 0.0022 W/m/K
296.18 K, Amount density=7490 mol/m3, x2 = 0.25	0.0914 ± 0.0031 W/m/K
296.19 K, Amount density=5680 mol/m3, x2 = 0.25	0.0751 ± 0.0022 W/m/K
296.2 K, Amount density=6830 mol/m3, x2 = 0.25	0.0909 ± 0.0027 W/m/K
296.21 K, Amount density=8450 mol/m3, x2 = 0.25	0.107 ± 0.0029 W/m/K
296.22 K, Amount density=6830 mol/m3, x2 = 0.25	0.0855 ± 0.0025 W/m/K
296.22 K, Amount density=7450 mol/m3, x2 = 0.25	0.0888 ± 0.0033 W/m/K and 0.099 ± 0.0036 W/m/K
296.24 K, Amount density=2940 mol/m3, x2 = 0.25	0.0312 ± 0.0016 W/m/K
296.24 K, Amount density=6710 mol/m3, x2 = 0.26	0.118 ± 0.0045 W/m/K
296.29 K, Amount density=5680 mol/m3, x2 = 0.25	0.0757 ± 0.0021 W/m/K
296.31 K, Amount density=7490 mol/m3, x2 = 0.25	0.102 ± 0.0033 W/m/K
296.34 K, Amount density=6710 mol/m3, x2 = 0.26	0.159 ± 0.0056 W/m/K
296.34 K, Amount density=7490 mol/m3, x2 = 0.25	0.107 ± 0.0036 W/m/K
296.36 K, Amount density=6710 mol/m3, x2 = 0.26	0.166 ± 0.0059 W/m/K
296.38 K, Amount density=6710 mol/m3, x2 = 0.26	0.147 ± 0.0054 W/m/K and 0.193 ± 0.0067 W/m/K and 0.172 ± 0.0061 W/m/K
296.39 K, Amount density=6710 mol/m3, x2 = 0.26	0.166 ± 0.0045 W/m/K
296.4 K, Amount density=6710 mol/m3, x2 = 0.26	0.18 ± 0.0049 W/m/K
296.4 K, Amount density=7450 mol/m3, x2 = 0.25	0.124 ± 0.0037 W/m/K
296.4 K, Amount density=7490 mol/m3, x2 = 0.25	0.114 ± 0.0064 W/m/K
296.41 K, Amount density=7450 mol/m3, x2 = 0.25	0.117 ± 0.0035 W/m/K
296.44 K, Amount density=6710 mol/m3, x2 = 0.26	0.167 ± 0.0044 W/m/K
296.44 K, Amount density=7490 mol/m3, x2 = 0.25	0.124 ± 0.0065 W/m/K and 0.13 ± 0.0066 W/m/K
296.45 K, Amount density=5680 mol/m3, x2 = 0.25	0.0719 ± 0.0021 W/m/K
296.46 K, Amount density=6830 mol/m3, x2 = 0.25	0.102 ± 0.0036 W/m/K
296.52 K, Amount density=2940 mol/m3, x2 = 0.25	0.0308 ± 0.0015 W/m/K
296.52 K, Amount density=6710 mol/m3, x2 = 0.26	0.135 ± 0.0035 W/m/K
296.52 K, Amount density=7450 mol/m3, x2 = 0.25	0.131 ± 0.0073 W/m/K
296.54 K, Amount density=7490 mol/m3, x2 = 0.25	0.166 ± 0.0044 W/m/K
296.56 K, Amount density=446 mol/m3, x2 = 0.25	0.0209 ± 0.0013 W/m/K
296.58 K, Amount density=7450 mol/m3, x2 = 0.25	0.157 ± 0.01 W/m/K
296.62 K, Amount density=7450 mol/m3, x2 = 0.25	0.184 ± 0.0039 W/m/K

— the NIST ThermoML archive (doi:10.1007/s10765-008-0482-1)
